Where two headings read alike, the source gives them in different places.
Key:
RdFucI [1] = format: biochemical, Raoultella sp. KDH 14
RdFucI [2] = experiment: Substrate specificity of RdFucI; format: biochemical, Raoultella sp. KDH 14; conditions: aldose and ketose substrates tested
Source text: In general, sugar isomerases show reactivity for various sugars. As a result of testing with various aldoses (L-fucose, D-arabinose, D-altrose, D-galactose, D-mannose and D-glucose) and ketose substrates (L-fuculose, D-ribulose, D-psicose, D-tagatose and D-fructose), the highest activity was shown against L-fuculose (115.3 U/mg) and D-ribulose (127.3 U/mg), showing much higher activities compared to activities for the other tested aldose and ketose substrates.

[3] = pH effect on RdFucI activity for fuculose; format: biochemical, Raoultella sp. KDH 14
[4] = target: the molecule itself; experiment: crystal structure, self-association of subunits
[5] = Reversible reaction between L-fucose and L-fuculose by RdFucI; format: biochemical, Raoultella sp. KDH 14; conditions: 10 mM substrate, 20 mM sodium phosphate pH 7, 1.5 μg RdFucI, 30° C., 1 mM MnCl2
Description: In order to identify what kind of reaction RdFucI favored in a reaction between fucose and fuculose, a reversible reaction of the recombinant enzyme was investigated over time. For this purpose, 10 mM L-fucose (FIG. 4a) or L-fuculose (FIG. 4b) included in 20 mM sodium phosphate (pH7) was used as a substrate, and was each reacted with 1.5 μg of RdFucI at 30° C. in the presence of 1 mM MnCl2, and L-fucose was experimentally quantified. In contrast, L-fuculose was expressed as a calculated value.

[6] = Temperature effect on RdFucI activity for fuculose; format: biochemical, Raoultella sp. KDH 14
Source text: (80% or more of the maximum activity) (FIG. 5a).

[7] = effect of metal ion on RdFucI activity, fuculose as substrate, Control = 100

[Ca+2].[Cl-].[Cl-] [CaCl2]
effect of metal ion on enzyme activity (in words) (RdFucI [1]; RdFucI): inhibit the enzyme activity
Relative activity (%) (RdFucI [1]; [7]): 64 ± 8%

[Cl][Cd][Cl] [CdCl2]
effect of metal ion on enzyme activity (in words) (RdFucI [1]; RdFucI): increase the enzyme activity
Relative activity (%) (RdFucI [1]; [7]): 183 ± 9%

[Cl-].[Cl-].[Co+2] [CoCl2]
Relative activity (%) (RdFucI [1]): 353 ± 83%
effect of metal ion on enzyme activity (in words) (RdFucI [1]): increase the enzyme activity

[Cl-].[Cs+] [CsCl2]
Relative activity (%) (RdFucI [1]; [7]): 101 ± 16%

[Cl][Cu][Cl] [CuCl2]
effect of metal ion on enzyme activity (in words) (RdFucI [1]; RdFucI): inhibit the enzyme activity
Relative activity (%) (RdFucI [1]; [7]): 58 ± 7%

O=C(CO)[C@H](O)[C@H](O)CO [D-ribulose]
activity of RdFucI against substrate (RdFucI [2]): 127.3 U/mg

O=C(O)CN(CCN(CC(=O)O)CC(=O)O)CC(=O)O [EDTA]
Relative activity (%) (RdFucI [1]): 77 ± 12%

[Cl][Fe]([Cl])[Cl] [FeCl3]
effect of metal ion on enzyme activity (in words) (RdFucI [1]; RdFucI): inhibit the enzyme activity
Relative activity (%) (RdFucI [1]; [7]): 74 ± 3%

C[C@H](O)[C@@H](O)[C@@H](O)C(=O)CO [L-fuculose]
activity of RdFucI against substrate (RdFucI [2]): 115.3 U/mg

O=S(=O)([O-])[O-].[Li+].[Li+] [LiSO4]
Relative activity (%) (RdFucI [1]; [7]): 101 ± 15%

[Cl-].[Cl-].[Mg+2] [MgCl2]
effect of metal ion on enzyme activity (in words) (RdFucI [1]; RdFucI): increase the enzyme activity
Relative activity (%) (RdFucI [1]; [7]): 533 ± 31%

[Cl][Mn][Cl] [MnCl2]
effect of metal ion on enzyme activity (in words) (RdFucI [1]; RdFucI): increase the enzyme activity
increase of enzyme activity in the presence of the metal ion (RdFucI [1]; RdFucI, fuculose as substrate): about 7 fold
Relative activity (%) (RdFucI [1]; [7]): 738 ± 70%

[Cl][Ni][Cl] [NiCl2]
Relative activity (%) (RdFucI [1]; [7]): 91 ± 13%

[Cl-].[Cl-].[Zn+2] [ZnCl2]
effect of metal ion on enzyme activity (in words) (RdFucI [1]; RdFucI): increase the enzyme activity
Relative activity (%) (RdFucI [1]; [7]): 159 ± 4%

Tris-HCl [Tris-HCl buffer]
RdFucI activity in the buffer versus other buffer types at the same pH (in words) ([3]; pH 7, 8 and 9, 50 mM, 40° C.): much lower

B1: L-fucose isomerase derived from Raoultella sp. KDH 14 strain (enzyme)
chain: MKRISLPKIGIRPVIDGRRMGVRESLEAQTMNMAKATAALISEKLRHACGAQIECVIADTCIAGMAESAACEEKFSRQNVGVTITVTPCWCYGSETIDMDPLRPKAIWGFNGTERPGAVYLAAALAAHSQKGIPAFSIYGHDVQDADDTTIPADVEEKLLRFARAGLAVASMKGKSYLSVGGVSMGIAGSIVDHNFFESWLGMKVQAVDMTELRRRIDQKIYDEVELEMALAWADKNFRYGEDQNAQHYKRDEEQSRAVLKESLLMAMCIRDMMQGNEKLAEKGLLEESLGYNAIAAGFQGQRHWTDQYPNGDTAEALLNSSFDWNGVREPFVVATENDSLNGVAMLMGHQLTGTAQVFADVRTYWSPDAVERVTGQPLTGLAEHGIIHLINSGSAALDGSCQQRDEEGKPTMKPHWEISQKEADACLAATEWCPAIHEYFRGGGYSSRFLTEGGVPFTMTRVNLIKGLGPVLQIAEGWSVELPKAMHDQLDARTNSTWPTTWFAPRLTGKGPFADVYSVMANWGANHGVLTIGHVGADFITLAAMLRIPVCMHNVEEGKIYRPSSWSAHGMDTEGQDYRACQNYGPLYKR
notes: also called RdFucI; Rd FucI
binding result [4]: binds

B2: RdFucI: L-fucose isomerase of Raoultella sp. KDH 14, amino acid sequence SEQ ID NO: 1, 591 amino acids (protein)
chain: B1 chain
modifications: Raoultella sp. KDH 14
reaction rate of reverse reaction (L-fuculose to L-fucose) versus forward reaction [5]: about 5 fold
relative activity, of the maximum activity, at 30, 40 and 50° C. ([6]; 10 mM substrate, 1.5 μg enzyme, pH 7): ≥ 80%
temperature of highest activity ([6]; 10 mM substrate, 1.5 μg enzyme, pH 7, 10 to 80° C.): 40 °C
enzyme activity out of the 30 to 50° C. range ([6]; L-fuculose as substrate): less than 50%
relative maximum activity at pH 6 to 11 ([3]; sodium acetate, sodium phosphate and glycine-NaOH buffers): ≥ 70%
